Data published in patent US20210186947A1, “TOMM6-INTERACTING EXTRACTS AND COMPOUNDS FOR USE IN THE TREATMENT AND PROPHYLAXIS OF NERVOUS SYSTEM DISEASES, ATHEROSCLEROSIS, HEPATITIS B INFECTION AND HUMAN PAPILLOMA VIRUS (HPV) INFECTION” (ETH ZURICH, priority 2018, published 2021).

Columns and labels:
[1] = tested on: hyperphosphorylated PHF-Tau; assay: Hippocampal hyperphosphorylated PHF-Tau in Tg2576 mice subjected to CUMS, binding assay with [125I]-labeled AT8 antibody; assay type: in vivo; conditions: 15 months-old Tg2576 mice, 3 months of CUMS, treated during CUMS; compounds 10 mg/kg/d
[2] = tested on: hippocampal neuronal cell bodies (NeuN); assay: Hippocampal neuronal loss in Tg2576 mice subjected to CUMS, binding assay with [125I]-labeled anti-NeuN antibody; assay type: in vivo; conditions: 15 months-old Tg2576 mice, 3 months of CUMS, treated during CUMS; compounds 10 mg/kg/d
Ccr9 = assay: Whole genome microarray gene expression analysis of aortic genes: Ccr9; assay type: in vivo; conditions: ApoE-/- mice, 10 mg/kg/day for 8 months
Experimental: Whole genome microarray gene expression profiling was performed with aortic specimens isolated from 9-month-old ApoE−/− mice without treatment and with oral treatment for 8 months with alizarin (10 mg/kg/day), and untreated age-matched B6 control mice. Total RNA was isolated by the RNeasy Mini kit according to the protocol of the manufacturer (Qiagen). RNA purity was between 1.8 and 2 as determined by the absorbance ratio of 260/280. RNA quality and absence of signs of degradation were also controlled by RNA electrophoresis on a denaturing agarose gel by the presence of bright bands of 28S and 18S ribosomal RNA. Total RNA was processed for whole genome microarray gene expression profiling with the GeneChip One-Cycle Target Labeling System (Affymetrix) according to the protocol of the manufacturer (Affymetrix GeneChip Expression Analysis Technical Manual Rev. 5). […]
Alzheimer's Disease (AD) is the most frequent form of dementia in the elderly. […] Atherosclerotic lesion area was assessed with oil red O-stained aortas isolated from 9-month-old ApoE−/− mice (FIG. 17A). […] The aortic expression levels of neuronal marker genes of alizarin-treated ApoE−/− mice were determined compared to untreated ApoE−/− mice and untreated B6 mice without atherosclerosis (FIG. 17D,E).

[3] = Sub-chronic oral toxicity in rats; assay type: in vivo, Sprague Dawley rats
Experimental: Sub-chronic toxicity studies in dogs (German Shepherd dogs) and rats (Sprague Dawley rats) were performed by the Center of Applied Analytical and Veterinary Studies, Cairo, Egypt.
The oral toxicity of alizarin (Compound-1) in rats was determined in a sub-chronic toxicity study. Rats were treated for 3 months with a once daily oral dose of alizarin of 25 mg/kg/day, 50 mg/kg/day and 100 mg/kg/day. […] The good tolerability of alizarin in rats and dogs is supported by previous observations in humans, which document that long-term treatment for several years with alizarin and alizarin-containing plant extracts is not toxic and was previously used to prevent recurrence of calcium-containing urinary stones (Lorenz et al., Methods Find. Exp. Clin. Pharmacol. 7, 637-643, 1985). Taken together, alizarin has good oral bioavailability and a wide therapeutic window.
Pharmacokinetic data of Compound-7 were determined as another representative TOMM6/Tomm6 inducer with a different chemical structure than alizarin (Compound-1). […] The oral bioavailability of Compound-7 in dogs was much higher than in rats because oral doses of Compound-7 required to achieve equivalent peak serum concentrations were approximately 10-fold higher in rats compared to dogs (FIG. 20B). Again, this observation is in agreement with the equivalent surface area dosage rule, according to which rats and mice usually require a 10-12-fold higher dose than dogs and humans. […] This second peak could reflect enterohepatic recirculation of Compound-7.

Salmonella strain TA1537 = conditions: cited from earlier work
mammalian cells = mammalian cells and in vivo; cited from earlier work

O=C1c2ccccc2C(=O)c2c1ccc(O)c2O [Compound-1, 1,2-dihydroxyanthraquinone]
hippocampal content of hyperphosphorylated PHF-Tau [1]: significantly decreased hippocampal content of hyperphosphorylated PHF-Tau | hippocampal neuronal loss [2]: prevented | aortic expression of Ccr9 (Ccr9): significantly decreased expression | histopathology of heart, liver, kidney ([3]; rats, 3 months, once daily oral 100 mg/kg): did not show any detectable alterations | adverse effects on body, liver, heart and kidney weight, serum calcium, creatinine, BUN, ALT, AST ([3]; rats, 3 months, once daily oral 25, 50 and 100 mg/kg/day): did not find any significant adverse effects | difference between therapeutic and toxic doses (therapeutic index) ([3]; therapeutic dose 10 mg/kg once daily in rodent models): more than 10 fold | mutagenicity in the Ames test (Salmonella strain TA1537): could be mutagenic | tumor promotion (mammalian cells): not a tumor promotor
